Measurements as given in PubChem BioAssay (NCI).
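Briefly, cells in 96-well plates were exposed to five compound concentrations for 48 h, and endpoints were estimated by linear interpolation. At the GI50, growth is halved. Definition used: TGI = concentration required for complete inhibition of growth.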

Experiments:
Test in all cases: DTP human tumour cell line panel, 48 h
[1] = test system: PC-3 prostate
[2] = test system: RPMI-8226 leukemia
[3] = test system: SNB-75 CNS
[4] = test system: OVCAR-3 ovarian
[5] = test system: A549 NSCLC
[6] = test system: M14 melanoma
[7] = test system: HCT-116 colon
[8] = test system: LOX IMVI melanoma
[9] = test system: RXF 393 renal
[10] = test system: UACC-62 melanoma
[11] = test system: SF-539 CNS
[12] = test system: 786-0 renal
[13] = test system: T-47D breast
[14] = test system: HT29 colon
[15] = test system: NCI-H226 lung
[16] = test system: HCT-15 colon
[17] = test system: OVCAR-5 ovarian
[18] = test system: ACHN renal
[19] = test system: SK-OV-3 ovarian
[20] = test system: NCI-H23 lung
[21] = test system: UO-31 renal
[22] = test system: MCF7 breast
[23] = test system: OVCAR-4 ovarian
[24] = test system: NCI-H522 lung
[25] = test system: COLO 205 colon
[26] = test system: IGROV1 ovarian
[27] = test system: MDA-MB-435
[28] = test system: SR leukemia
[29] = test system: SK-MEL-2 melanoma
[30] = test system: OVCAR-8 ovarian
[31] = test system: MDA-MB-231 breast
[32] = test system: MALME-3M melanoma
[33] = test system: MOLT-4 leukemia
[34] = test system: NCI/ADR-RES ovarian
[35] = test system: UACC-257 melanoma
[36] = test system: DU-145 prostate
[37] = test system: SNB-19 CNS
[38] = test system: HS 578T breast
[39] = test system: SK-MEL-5 melanoma
[40] = test system: SW-620 colon
[41] = test system: NCI-H460 lung
[42] = test system: KM12 colon
[43] = test system: HL-60(TB) leukemia
[44] = test system: U251 CNS
[45] = test system: SF-295 CNS
[46] = test system: A498 renal
[47] = test system: SK-MEL-28 melanoma
[48] = test system: CCRF-CEM leukemia
[49] = test system: HCC-2998 colon
[50] = test system: BT-549 breast
[51] = test system: HOP-62 NSCLC
[52] = test system: K-562 leukemia
[53] = test system: HOP-92 NSCLC
[54] = test system: TK-10 renal
[55] = test system: EKVX NSCLC
[56] = test system: SF-268 CNS
[57] = test system: SN12C renal

CC[N+](CC)=c1sc2c(s1)C(c1ccc(Cl)cc1)Oc1ccc(Cl)cc1-2 (centres undefined)
GI50 [1]: 1380 nM | TGI [1]: 3280 nM | GI50 [2]: 1990 nM | TGI [2]: 7500 nM | GI50 [3]: 783 nM | TGI [3]: 10600 nM | GI50 [4]: 1910 nM | TGI [4]: 3950 nM | GI50 [5]: 1860 nM | TGI [5]: 6900 nM | GI50 [6]: 1860 nM | TGI [6]: 4000 nM | GI50 [7]: 568 nM | TGI [7]: 1890 nM | GI50 [8]: 1510 nM | TGI [8]: 3220 nM | GI50 [9]: 2260 nM | TGI [9]: 4860 nM | GI50 [10]: 1650 nM | TGI [10]: 4140 nM | GI50 [11]: 1460 nM | TGI [11]: 2970 nM | GI50 [12]: 1920 nM | TGI [12]: 3760 nM | GI50 [13]: 1670 nM | TGI [13]: 6390 nM | GI50 [14]: 2200 nM | TGI [14]: 5070 nM | GI50 [15]: 5560 nM | TGI [15]: 33100 nM | GI50 [16]: 7130 nM | TGI [16]: 21500 nM | GI50 [17]: 2320 nM | TGI [17]: 6110 nM | GI50 [18]: 11300 nM | TGI [18]: 23900 nM | GI50 [19]: 2510 nM | TGI [19]: 8720 nM | GI50 [20]: 1070 nM | TGI [20]: 6790 nM | GI50 [21]: 2820 nM | TGI [21]: 15400 nM | GI50 [22]: 1540 nM | TGI [22]: 4730 nM | GI50 [23]: 3030 nM | TGI [23]: 12700 nM | GI50 [24]: 670 nM | TGI [24]: 2890 nM | GI50 [25]: 1650 nM | TGI [25]: 3770 nM | GI50 [26]: 1600 nM | TGI [26]: 10700 nM | GI50 [27]: 2040 nM | TGI [27]: 4660 nM | GI50 [28]: 2680 nM | TGI [28]: 7150 nM | GI50 [29]: 1030 nM | TGI [29]: 2810 nM | GI50 [30]: 1970 nM | TGI [30]: 5410 nM | GI50 [31]: 1930 nM | TGI [31]: 4350 nM | GI50 [32]: 1440 nM | TGI [32]: 3880 nM | GI50 [33]: 2160 nM | TGI [33]: 6410 nM | GI50 [34]: 21600 nM | TGI [34]: 67200 nM | GI50 [35]: 2330 nM | TGI [35]: 5460 nM | GI50 [36]: 3320 nM | TGI [36]: 10600 nM | GI50 [37]: 487 nM | TGI [37]: 1840 nM | GI50 [38]: 1430 nM | TGI [38]: 5590 nM | GI50 [39]: 1220 nM | TGI [39]: 2530 nM | GI50 [40]: 1080 nM | TGI [40]: 2720 nM | GI50 [41]: 503 nM | TGI [41]: 1890 nM | GI50 [42]: 456 nM | TGI [42]: 1910 nM | GI50 [43]: 2220 nM | TGI [43]: 5980 nM | GI50 [44]: 374 nM | TGI [44]: 1370 nM | GI50 [45]: 1090 nM | TGI [45]: 4640 nM | GI50 [46]: 3370 nM | TGI [46]: 10200 nM | GI50 [47]: 1320 nM | TGI [47]: 2820 nM | GI50 [48]: 665 nM | TGI [48]: 6350 nM | GI50 [49]: 1520 nM | TGI [49]: 3740 nM | GI50 [50]: 749 nM | TGI [50]: 2310 nM | GI50 [51]: 1220 nM | TGI [51]: 5560 nM | GI50 [52]: 917 nM | TGI [52]: 10300 nM | GI50 [53]: 2400 nM | TGI [53]: 5660 nM | GI50 [54]: 3380 nM | TGI [54]: 6610 nM | GI50 [55]: 1960 nM | TGI [55]: 9530 nM | GI50 [56]: 461 nM | TGI [56]: 2080 nM | GI50 [57]: 1330 nM | TGI [57]: 3330 nM
